{"source": "PubChem BioAssay AID504760", "about": "(National Center for Advancing Translational Sciences (NCATS), 2011)", "system": "mouse plasma stability, LC-MS/MS, 48 h", "assay": "Inhibitors of Cruzain: Mouse Plasma Stability Profiling", "settings": "at 2 µM; stronger effect = higher value", "from_the_text": "Chagas Disease is a neglected tropical disease that affects over 16 million people in Latin America. The cysteine protease cruzain is essential for the survival Trypanosoma cruzi, the parasitic agent responsible for Chagas disease. Potential intervention for T. cruzi includes the inhibition of cruzain. This bioassay will summarize the ongoing development of small molecule cruzain inhbitiors. Currently, a screen of ~200k compounds and through extensive follow-up work a probe was identified. To further characterize the probe, it was tested in in vitro ADME assays. The stability of the lead compound in mouse plasma is tested because this parameter has a significant impact on many ADME-concerned properties of drugs, such as uptake, distribution, transport, and bioavailability. NIH Chemical Genomics Center [NCGC] NIH Molecular Libraries Probe Production Centers Network [MLPCN] MLSCN Grant: DA024891-01 PI Name: Dr. Brian Shoichet; University of California, San Francisco\n2uM of compound is incubated in mouse plasma; the reference compound is procaine. Compounds are incubated at 37 deg C for the pre-determined time periods and the when aliquots are removed. Samples are analyzed with LC-MS/MS."}
{"smiles": "Cc1ccc(OCCn2c(CCNC(=O)C3CCCCC3)nc3ccccc32)cc1", "values": [{"measurement": "percent remaining", "result": 95, "unit": "%"}]}
